Laboratory results reported in US20260151375A1, “CDK2 INHIBITORS AND METHODS OF USING THE SAME” (Cedilla Therapeutics, Inc., priority 2022, published 2026).

Legend:
[1] = tested on: Kuramochi cells; experiment: IncuCyte Kuramochi Assay (cell proliferation); format: cell-based; conditions: 72 h, Kuramochi cells labeled with mApple-H2B, cell count, read-out: IncuCyte - Kuramochi RB-WT: IC50
Protocol: IncuCyte® assay was used to measure the effect of disclosed compounds on cell proliferation. Fluorescent microscopy images of cells were taken immediately after compound treatment and 72 hours later. Image analysis software was used to obtain cell counts as a function of compound concentration. Kuramochi cells labeled with mApple-H2B were seeded on 384-well assay-ready plates. Plates were placed in an IncuCyte® (Sartorius) and scanned at 0 and 72 hours. IncuCyte® software was used to count the number of fluorescent nuclei in each well. The fold change in cell count from 0 to 72 hours in wells treated with increasing compounds concentrations (10 pts, ½ log dilution, 20 μM top concentration) was normalized to DMSO control wells. The normalized cell counts were fit with dose response curves and a […] was calculated.

[2] = target: T1, CDK2/Cyclin E1 (Homo sapiens, UniProt P24941); experiment: Caliper Assay (LabChip EZ Reader mobility shift assay), inhibition of CDK2/Cyclin E1 activity; format: biochemical; conditions: 2.5 nM CDK2/Cyclin E1(14-475), 100 μM ATP, 30 min preincubation; read-out: Caliper Assay (CDK2/CCNE1): IC50
T1 construct: purchased 14-475
Protocol: Inhibition of CDK2/Cyclin E1 activity in the presence of compounds of the present disclosure was evaluated using a Caliper LabChip® EZ Reader mobility shift assay. In the assay, activated CDK2/Cyclin E1 catalyzes the phosphorylation of a fluorescently tagged peptide 5-FAM-QSPKKG-CONH2 (PerkinElmer, FL Peptide 18) which induces a difference in capillary electrophoresis mobility. The peptide substrate and product were measured, and the conversion ratio was used to determine the inhibition (as % activity and IC50 values) of CDK2/Cyclin E1. Reactions contained 50 mM HEPES pH 7.5, 10 mM MgCl2, 1 mM EDTA, 2 mM DTT, 0.01% Brij35, 0.5 mg/mL BSA, 0.1% DMSO, 2.5 nM CDK2/Cyclin E1(14-475), 100 μM ATP, and 1.5 μM fluorescent peptide substrate.
Dose titrations of inhibitors in 100% DMSO were combined with 3.25 nM CDK2/Cyclin E1(14-475) and 130 μM of ATP in reaction buffer. The mixtures were incubated for 30 minutes before the addition of fluorescent peptide substrate to initiate the kinase reaction. The final conditions were 2.5 nM CDK2/Cyclin E1(14-475), 100 μM ATP, and 1.5 μM fluorescent peptide. The reactions were stopped after 100 minutes with the addition of EDTA (6 mM final EDTA concentration). The stopped reactions were analyzed on a Caliper LabChip© EZ Reader II. The conversion ratios were normalized to yield % activity, plotted against compound concentration, and fit to a four-parameter equation to determine the IC50 for each compound.

SMILES | IC50 [2] [µM] | IC50 [1] [µM]
CC1(C)C[C@@H]1C(=O)N1CC2(CN(C(=O)c3cncs3)CC2c2nnc(Cc3ccc(C4CCOCC4)c(Cl)c3)o2)C1 (some centres unmarked) [I-31] | 0.1 to 1 | > 10
CC1(C)C[C@@H]1C(=O)N1CC2(C1)CN(c1ncnc3ncsc13)CC2c1nnc(C(F)(F)c2ccc(Cl)cc2)o1 (stereo partly drawn) [I-37, (8-(5-((4-chlorophenyl)difluoromethyl)-1,3,4-oxadiazol-2-yl)-6-(thiazolo[4,5-d]pyrimidin-7-yl)-2,6-diazaspiro[3.4]octan-2-yl)((S)-2,2-dimethylcyclopropyl)methanone] | 1 to 10 | > 10
O=C(c1cncs1)N1CC(c2nnc(Cc3ccc(Cl)c(Cl)c3)o2)C2(C1)CN(c1nc3ccccc3o1)C2 (centres unmarked) [I-41] | > 10 | > 10
CCOc1cc(C)nn1C(C)c1nc(C2CN(C(=O)c3cncs3)CC23CN(C(=O)[C@H]2CC2(C)C)C3)no1 (stereo partly drawn) [I-42, (2-((S)-2,2-dimethylcyclopropane-1-carbonyl)-8-(5-(1-(5-ethoxy-3-methyl-1H-pyrazol-1-yl)ethyl)-1,2,4-oxadiazol-3-yl)-2,6-diazaspiro[3.4]octan-6-yl)(thiazol-5-yl)methanone] | 1 to 10 | > 10
O=C(c1cncs1)N1CC(c2nnc(Cc3ccc(Cl)c(Cl)c3)o2)C2(C1)CN(c1ncc(C(F)(F)F)cn1)C2 (centres unmarked) [I-47] | > 10 | > 10
O=C(c1cncs1)N1CC(c2nnc(Cc3ccc(Cl)c(Cl)c3)o2)C2(C1)CN(c1ncccn1)C2 (centres unmarked) [I-49] | > 10 | > 10
CC1(C)C[C@@H]1C(=O)N1CC2(CN(C(=O)c3cncs3)CC2c2nnc(Cc3nc(C4CCOCC4)ccc3F)o2)C1 (stereo partly drawn) [I-50, (2-((S)-2,2-dimethylcyclopropane-1-carbonyl)-8-(5-((3-fluoro-6-(tetrahydro-2H-pyran-4-yl)pyridin-2-yl)methyl)-1,3,4-oxadiazol-2-yl)-2,6-diazaspiro[3.4]octan-6-yl)(thiazol-5-yl)methanone] | 1 to 10 | > 10
CC1(C)C[C@@H]1C(=O)N1CC2(CN(C(=O)c3cncs3)CC2c2cn(Cc3ccc(Cl)c(Cl)c3)nn2)C1 (stereo partly drawn) [I-51, (8-(1-(3,4-dichlorobenzyl)-1H-1,2,3-triazol-4-yl)-2-((S)-2,2-dimethylcyclopropane-1-carbonyl)-2,6-diazaspiro[3.4]octan-6-yl)(thiazol-5-yl)methanone] | > 10 | > 10
COc1ccc(C2CCOCC2)nc1Cc1nnc(C2CN(C(=O)c3cncs3)CC23CN(C(=O)[C@H]2CC2(C)C)C3)o1 (some centres unmarked) [I-55] | 0.1 to 1 | > 10
CC(C)(C(=O)N1CC2(CN(C(=O)c3cncs3)CC2c2nnc(C(F)(F)c3ccc(Cl)c(Cl)c3)o2)C1)C(F)(F)F (centres unmarked) [I-57] | 0.1 to 1 | > 10
O=C(c1cncs1)N1CC(c2nnc(C(F)(F)c3ccc(Cl)c(Cl)c3)o2)C2(C1)CN(c1ncccn1)C2 (centres unmarked) [I-59, (8-(5-((3,4-dichlorophenyl)difluoromethyl)-1,3,4-oxadiazol-2-yl)-2-(pyrimidin-2-yl)-2,6-diazaspiro[3.4]octan-6-yl)(thiazol-5-yl)methanone] | > 10 | > 10
O=C(c1cncs1)N1CC(c2nnc(Cc3ccc(Cl)c(Cl)c3)o2)C2(C1)CN(c1cccc[n+]1[O-])C2 (centres unmarked) [I-60] | > 10 | > 10
CC1(C)C[C@@H]1C(=O)N1CC2(CN(C(=O)c3cncs3)CC2c2nnc(C3(c4ccc(Cl)c(Cl)c4)CC(O)C3)o2)C1 (some centres unmarked) [I-61] | 0.01 to 0.1 | > 10
CC(C)(c1coc(C2CCCC2)n1)c1nc(C2CN(C(=O)c3cncs3)CC23CN(C(=O)[C@H]2CC2(C)C)C3)no1 (some centres unmarked) [I-62] | 0.01 to 0.1 | 5 to 10
Cc1cc(O)nn1C(C)c1nc(C2CN(C(=O)c3cncs3)CC23CN(C(=O)[C@H]2CC2(C)C)C3)no1 (some centres unmarked) [I-63] | 1 to 10 | > 10
CC(c1nc(C2CN(C(=O)c3cncs3)CC23CN(C(=O)[C@H]2CC2(C)C)C3)no1)n1cc(C2CCCC2)cn1 (some centres unmarked) [I-64] | 0.01 to 0.1 | > 10
Cc1nc(C)c(C(=O)N2CC(c3nnc(Cc4cccc(C5CCOCC5)n4)o3)C3(C2)CN(C(=O)[C@H]2CC2(C)C)C3)s1 (stereo partly drawn) [I-66, (2-((S)-2,2-dimethylcyclopropane-1-carbonyl)-8-(5-((6-(tetrahydro-2H-pyran-4-yl)pyridin-2-yl)methyl)-1,3,4-oxadiazol-2-yl)-2,6-diazaspiro[3.4]octan-6-yl)(2,4-dimethylthiazol-5-yl)methanone] | 0.1 to 1 | > 10

Continued, in another order:

IC50 [2] [µM] | SMILES | IC50 [1] [µM]
0.1 to 1 | CC1(C)C[C@@H]1C(=O)N1CC2(CN(C(=O)c3cncs3)CC2c2nnc(Cc3ccc4c(c3)OCCO4)o2)C1 (some centres unmarked) [I-27] | > 10
0.1 to 1 | CC1(C)C[C@@H]1C(=O)N1CC2(CN(C(=O)c3cncs3)CC2c2nnc(CCc3ccc(Cl)c(Cl)c3)o2)C1 (some centres unmarked) [I-28] | > 10
> 10 | CC1(C)C[C@@H]1C(=O)N1CC2(CN(C(=O)c3cncs3)CC2c2nnc(Cc3cc[nH]n3)o2)C1 (stereo partly drawn) [I-29, (8-(5-((1H-pyrazol-3-yl)methyl)-1,3,4-oxadiazol-2-yl)-2-((S)-2,2-dimethylcyclopropane-1-carbonyl)-2,6-diazaspiro[3.4]octan-6-yl)(thiazol-5-yl)methanone] | > 10
1 to 10 | CC1(C)C[C@@H]1C(=O)N1CC2(CN(C(=O)c3cncs3)CC2c2nnc(Cc3ccc(Cl)cc3)o2)C1 (some centres unmarked) [I-30] | > 10
1 to 10 | CC1(C)C[C@@H]1C(=O)N1CC2(CN(C(=O)c3cncs3)CC2c2nnc(Cc3cccc4c3OCCO4)o2)C1 (some centres unmarked) [I-33] | > 10
1 to 10 | COc1ccccc1C(F)(F)c1nnc(C2CN(C(=O)c3cncs3)CC23CN(C(=O)[C@H]2CC2(C)C)C3)o1 (some centres unmarked) [I-34] | > 10
0.1 to 1 | CC(C)(c1ccc(Cl)c(Cl)c1)c1nnc(C2CN(C(=O)c3cncs3)CC23CN(C(=O)[C@H]2CC2(C)C)C3)o1 (some centres unmarked) [I-39] | > 10
0.1 to 1 | CC1(C)C[C@@H]1C(=O)N1CC2(CN(C(=O)c3cncs3)CC2c2nnc(C(F)(F)c3ccc(C4CC4)cc3)o2)C1 (some centres unmarked) [I-40] | > 10
1 to 10 | CC1(C)C[C@@H]1C(=O)N1CC2(CN(C(=O)c3ccnnc3)CC2c2nnc(C(F)(F)c3ccc(Cl)c(Cl)c3)o2)C1 (stereo partly drawn) [I-43, (8-(5-((3,4-dichlorophenyl)difluoromethyl)-1,3,4-oxadiazol-2-yl)-2-((S)-2,2-dimethylcyclopropane-1-carbonyl)-2,6-diazaspiro[3.4]octan-6-yl)(pyridazin-4-yl)methanone] | > 10
1 to 10 | CC1(C)C[C@@H]1C(=O)N1CC2(CN(C(=O)c3cnco3)CC2c2nnc(C(F)(F)c3ccc(Cl)c(Cl)c3)o2)C1 (some centres unmarked) [I-44] | > 10
> 10 | CC1(C)C[C@@H]1C(=O)N1CC2(CN(C(=O)c3ncccn3)CC2c2nnc(C(F)(F)c3ccc(Cl)c(Cl)c3)o2)C1 (some centres unmarked) [I-46] | > 10
0.1 to 1 | CC1(C)C[C@@H]1C(=O)N1CC2(CN(C(=O)c3cn[nH]c3)CC2c2nnc(C(F)(F)c3ccc(Cl)c(Cl)c3)o2)C1 (some centres unmarked) [I-52] | > 10
> 10 | CC1(C)C[C@@H]1C(=O)N1CC2(CN(C(=O)c3cccnn3)CC2c2nnc(C(F)(F)c3ccc(Cl)c(Cl)c3)o2)C1 (some centres unmarked) [I-53] | > 10
> 10 | CC1(C)C[C@@H]1C(=O)N1CC2(CN(C(=O)c3cnc(C(F)(F)F)s3)CC2c2nnc(C(F)(F)c3ccc(Cl)c(Cl)c3)o2)C1 (some centres unmarked) [I-54] | > 10
1 to 10 | CC1(C)C[C@@H]1C(=O)N1CC2(CN(C(=O)c3cncnc3)CC2c2nnc(C(F)(F)c3ccc(Cl)c(Cl)c3)o2)C1 (some centres unmarked) [I-56] | > 10
1 to 10 | CC1(C)C[C@@H]1C(=O)N1CC2(CN(C(=O)c3cncs3)CC2c2nnc(C(F)(F)c3ccc(Cl)cc3)o2)C1 (some centres unmarked) [I-65] | > 10
1 to 10 | CC1(C)C[C@@H]1C(=O)N1CC2(CN(C(=O)c3cncs3)CC2c2nnc(Cc3nc4ccccc4o3)o2)C1 (some centres unmarked) [I-67] | > 10
0.1 to 1 | COc1ccc(C(F)(F)c2nnc(C3CN(C(=O)c4cncs4)CC34CN(C(=O)[C@H]3CC3(C)C)C4)o2)cc1 (some centres unmarked) [I-68] | > 10
0.1 to 1 | CC1(C)C[C@@H]1C(=O)N1CC2(CN(C(=O)c3cncs3)CC2c2nnc(C(F)(F)c3ccc(Br)cc3)o2)C1 (some centres unmarked) [I-69] | > 10
1 to 10 | CC1(C)C[C@@H]1C(=O)N1CC2(CN(C(=O)c3cncs3)CC2c2nnc(C(F)(F)c3ccccc3)o2)C1 (some centres unmarked) [I-70] | > 10
